Results reported in PubChem BioAssay AID256 (DTP/NCI, 2004).
Where “and” joins values, the source holds several entries; their conditions need not be identical. Identical values can stand only once. Toxic doses and inconclusive results are not listed.

Tested on: CD2F1 mice, L1210 leukemia ip, survival T/C
Experiment: NCI In Vivo Anticancer Drug Screen. Data for tumor model L1210 Leukemia (intraperitoneal) in CD2F1 (CDF1) mice
Conditions: higher = longer survival
Outline: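 Vehicle-treated tumor-bearing mice served as controls (C) for compound-treated mice (T). Reported figure is T divided by C.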

[1] = endpoint: mean survival time, dose: 100.0 mg/kg/injection, schedule: Q04DX003 (ip), vehicle: saline
[2] = endpoint: mean survival time, dose: 200.0 mg/kg/injection, schedule: Q04DX003 (ip), vehicle: saline
[3] = endpoint: mean survival time, dose: 400.0 mg/kg/injection, schedule: Q04DX003 (ip), vehicle: saline
[4] = endpoint: mean survival time, dose: 100.0 mg/kg/injection, schedule: Q04DX002 (ip), vehicle: saline with Tween-80
[5] = endpoint: mean survival time, dose: 200.0 mg/kg/injection, schedule: Q04DX002 (ip), vehicle: saline with Tween-80
[6] = endpoint: mean survival time, dose: 400.0 mg/kg/injection, schedule: Q04DX002 (ip), vehicle: saline with Tween-80
[7] = endpoint: mean survival time, dose: 400.0 mg/kg/injection, schedule: Q01DX009 (ip), vehicle: saline with Tween-80
[8] = endpoint: mean survival time, dose: 100.0 mg/kg/injection, schedule: Q01DX009 (ip), vehicle: saline with Tween-80
[9] = endpoint: mean survival time, dose: 200.0 mg/kg/injection, schedule: Q01DX009 (ip), vehicle: saline with Tween-80
[10] = endpoint: mean survival time, dose: 400.0 mg/kg/injection, schedule: Q01DX001 (ip), vehicle: saline
[11] = endpoint: mean survival time, dose: 25.0 mg/kg/injection, schedule: Q04DX002 (ip), vehicle: saline with Tween-80
[12] = endpoint: mean survival time, dose: 100.0 mg/kg/injection, schedule: Q04DX003 (ip), vehicle: saline with Tween-80
[13] = endpoint: mean survival time, dose: 200.0 mg/kg/injection, schedule: Q04DX003 (ip), vehicle: saline with Tween-80
[14] = endpoint: mean survival time, dose: 400.0 mg/kg/injection, schedule: Q04DX003 (ip), vehicle: saline with Tween-80
[15] = endpoint: mean survival time, dose: 100.0 mg/kg/injection, schedule: Q01DX001 (ip), vehicle: saline
[16] = endpoint: mean survival time, dose: 200.0 mg/kg/injection, schedule: Q01DX001 (ip), vehicle: saline
[17] = endpoint: mean survival time, dose: 50.0 mg/kg/injection, schedule: Q01DX001 (ip), vehicle: saline

[Br][Pt+2][Br].[NH-]C(c1ccccc1)C([NH-])c1ccccc1 (stereo not given)
T/C (endpoint: mean survival time, dose: 12.5 mg/kg/injection, schedule: Q04DX003 (ip), vehicle: saline with Tween-80): 109 % of control and 119 % of control
T/C (endpoint: mean survival time, dose: 25.0 mg/kg/injection, schedule: Q04DX003 (ip), vehicle: saline with Tween-80): 107 % of control and 109 % of control
T/C (endpoint: mean survival time, dose: 50.0 mg/kg/injection, schedule: Q04DX003 (ip), vehicle: saline with Tween-80): 109 % of control

CCCCCCCCC(=O)CC
T/C [1]: 98 % of control
T/C [2]: 98 % of control
T/C [3]: 93 % of control

CCCC(C)C1(CC)C(=O)NC(=O)NC1=O (stereo not given)
T/C (endpoint: mean survival time, dose: 20.0 mg/kg/injection, schedule: Q01DX009 (ip), vehicle: saline): 95 % of control
T/C (endpoint: mean survival time, dose: 40.0 mg/kg/injection, schedule: Q01DX009 (ip), vehicle: saline): 104 % of control

CC(=O)OCC1OC(Oc2c([N+](=O)[O-])cc([N+](=O)[O-])c3ccccc23)C(OC(C)=O)C(OC(C)=O)C1OC(C)=O (stereo not given)
T/C [4]: 96 % of control
T/C [5]: 93 % of control
T/C [6]: 104 % of control

O=C1CN=C(c2ccccn2)c2cc(Cl)ccc2N1
T/C (endpoint: mean survival time, dose: 267.0 mg/kg/injection, schedule: Q01DX009 (ip), vehicle: saline with Tween-80): 92 % of control
T/C [7]: 92 % of control

CC(C)(N)CO
T/C (endpoint: mean survival time, dose: 50.0 mg/kg/injection, schedule: Q01DX009 (ip), vehicle: saline): 88 % of control
T/C (endpoint: mean survival time, dose: 100.0 mg/kg/injection, schedule: Q01DX009 (ip), vehicle: saline): 100 % of control
T/C (endpoint: mean survival time, dose: 200.0 mg/kg/injection, schedule: Q01DX009 (ip), vehicle: saline): 100 % of control

CC(Oc1ccc(Br)cc1Br)C(=O)O (stereo not given)
T/C [8]: 97 % of control
T/C [9]: 94 % of control
T/C [7]: 94 % of control

CC(=O)Nn1cnc2c(SCc3ccccc3)ncnc21
T/C (endpoint: mean survival time, dose: 177.0 mg/kg/injection, schedule: Q01DX001 (ip), vehicle: saline): 95 % of control
T/C (endpoint: mean survival time, dose: 266.0 mg/kg/injection, schedule: Q01DX001 (ip), vehicle: saline): 95 % of control
T/C [10]: 97 % of control
T/C (endpoint: mean survival time, dose: 600.0 mg/kg/injection, schedule: Q01DX001 (ip), vehicle: saline): 96 % of control

CCCCCCCCCCCCOP(OCC)OCCCCCCCCCCCC
T/C [11]: 104 % of control
T/C (endpoint: mean survival time, dose: 50.0 mg/kg/injection, schedule: Q04DX002 (ip), vehicle: saline with Tween-80): 101 % of control
T/C [4]: 96 % of control and 101 % of control

CC(=O)O.[Ni]
T/C (endpoint: mean survival time, dose: 40.0 mg/kg/injection, schedule: Q01DX001 (ip), vehicle: saline): 118 % of control

CC12CCC(=O)C=C1CCC1C2CCC2(C)C(C(=O)O)CCC12 (stereo not given)
T/C [12]: 102 % of control
T/C [13]: 96 % of control

CCC(=O)Nc1ccc(C)c(Cl)c1
T/C [8]: 95 % of control
T/C [12]: 96 % of control
T/C [9]: 95 % of control
T/C [13]: 95 % of control
T/C [7]: 104 % of control
T/C [14]: 97 % of control

C=CCC#N
T/C (endpoint: mean survival time, dose: 100.0 mg/kg/injection, schedule: Q04DX003 (ip), vehicle: saline sonified): 90 % of control

COc1ccc(/C=C/c2ccccc2)cc1
T/C (endpoint: mean survival time, dose: 100.0 mg/kg/injection, schedule: Q01DX001 (ip), vehicle: saline with Tween-80): 95 % of control
T/C (endpoint: mean survival time, dose: 200.0 mg/kg/injection, schedule: Q01DX001 (ip), vehicle: saline with Tween-80): 88 % of control
T/C (endpoint: mean survival time, dose: 400.0 mg/kg/injection, schedule: Q01DX001 (ip), vehicle: saline with Tween-80): 86 % of control

COc1cccc(NC(=S)NC(Cc2ccccc2)c2ccccc2)c1 (stereo not given)
T/C (endpoint: mean survival time, dose: 100.0 mg/kg/injection, schedule: Q01DX001 (ip), vehicle: Klucel (hydroxypropylcellulose) (HPC)): 101 % of control
T/C (endpoint: mean survival time, dose: 200.0 mg/kg/injection, schedule: Q01DX001 (ip), vehicle: Klucel (hydroxypropylcellulose) (HPC)): 91 % of control
T/C (endpoint: mean survival time, dose: 400.0 mg/kg/injection, schedule: Q01DX001 (ip), vehicle: Klucel (hydroxypropylcellulose) (HPC)): 96 % of control

COc1ccc(N(C)c2ccc(C(=C3C=CC(=[N+](C)CCO)C=C3)c3ccc(N(C)CCO)cc3)cc2)cc1
T/C (endpoint: mean survival time, dose: 6.25 mg/kg/injection, schedule: Q04DX002 (ip), vehicle: saline with Tween-80): 108 % of control
T/C [11]: 108 % of control

COc1cc(OC)c(NC(=O)Oc2ccc(Br)cc2Br)cc1Cl
T/C (endpoint: mean survival time, dose: 12.5 mg/kg/injection, schedule: Q01DX009 (ip), vehicle: saline with Tween-80): 92 % of control
T/C (endpoint: mean survival time, dose: 25.0 mg/kg/injection, schedule: Q01DX009 (ip), vehicle: saline with Tween-80): 100 % of control
T/C (endpoint: mean survival time, dose: 50.0 mg/kg/injection, schedule: Q01DX009 (ip), vehicle: saline with Tween-80): 94 % of control and 107 % of control
T/C [8]: 94 % of control
T/C [9]: 90 % of control

O=c1ccn(C2OC(CO)C(O)C2O)c(=O)[n]1[Hg][c]1ccccc1 (stereo not given)
T/C (endpoint: median survival time, dose: 0.79 mg/kg/injection, schedule: Q01DX005 (ip), vehicle: saline): 116 % of control and 111 % of control
T/C (endpoint: median survival time, dose: 1.56 mg/kg/injection, schedule: Q01DX005 (ip), vehicle: saline): 100 % of control
T/C (endpoint: median survival time, dose: 3.12 mg/kg/injection, schedule: Q01DX005 (ip), vehicle: saline): 100 % of control and 101 % of control and 103 % of control
T/C (endpoint: median survival time, dose: 6.25 mg/kg/injection, schedule: Q01DX005 (ip), vehicle: saline): 100 % of control and 101 % of control and 107 % of control
T/C (endpoint: median survival time, dose: 12.5 mg/kg/injection, schedule: Q01DX005 (ip), vehicle: saline): 101 % of control

O=C1NCC(c2ccccc2)(C2CC2)O1 (stereo not given)
T/C [4]: 100 % of control
T/C [5]: 100 % of control
T/C [6]: 100 % of control

COc1ccccc1C1=CCCCCC1
T/C [8]: 107 % of control
T/C [9]: 107 % of control

O=C1/C(=C/c2ccccc2)Cc2ccccc21
T/C [8]: 94 % of control
T/C [9]: 91 % of control
T/C [7]: 89 % of control

CCCc1cc(CCC)nc(NNc2nc(CCC)cc(CCC)n2)n1
T/C [12]: 96 % of control
T/C [13]: 94 % of control
T/C [14]: 96 % of control

CCOC(=O)C(C)(C(=O)OCC)n1cnc2c1c(=O)n(C)c(=O)n2C
T/C (endpoint: mean survival time, dose: 100.0 mg/kg/injection, schedule: Q01DX005 (ip), vehicle: distilled water + Tween-80): 100 % of control
T/C (endpoint: mean survival time, dose: 200.0 mg/kg/injection, schedule: Q01DX005 (ip), vehicle: distilled water + Tween-80): 102 % of control
T/C (endpoint: mean survival time, dose: 400.0 mg/kg/injection, schedule: Q01DX005 (ip), vehicle: distilled water + Tween-80): 107 % of control

Cc1ccc(S(=O)(=O)[n+]2ccccc2)cc1
T/C [1]: 97 % of control
T/C [2]: 103 % of control
T/C [3]: 95 % of control

COc1ccc(CCNC(=O)Cc2cc3c(cc2[N+](=O)[O-])OCO3)cc1OC
T/C [15]: 95 % of control
T/C [16]: 94 % of control
T/C [10]: 95 % of control

Nc1cc2c(cc1Br)-c1ccccc1C2Br (stereo not given)
T/C [12]: 94 % of control
T/C [14]: 92 % of control

CS(=O)(=O)OCC(=O)C(=O)COS(C)(=O)=O
T/C (endpoint: mean survival time, dose: 25.0 mg/kg/injection, schedule: Q01DX001 (ip), vehicle: saline): 91 % of control
T/C [17]: 94 % of control
T/C [15]: 96 % of control and 103 % of control

CC1CCC(=O)O1 (stereo not given)
T/C (endpoint: mean survival time, dose: 100.0 mg/kg/injection, schedule: Q04DX002 (ip), vehicle: saline): 98 % of control
T/C (endpoint: mean survival time, dose: 200.0 mg/kg/injection, schedule: Q04DX002 (ip), vehicle: saline): 98 % of control
T/C (endpoint: mean survival time, dose: 400.0 mg/kg/injection, schedule: Q04DX002 (ip), vehicle: saline): 98 % of control

O=C(O)c1c2ccccc2cc2ccccc12
T/C (endpoint: mean survival time, dose: 100.0 mg/kg/injection, schedule: Q04DX003 (ip), vehicle: Klucel (hydroxypropylcellulose) (HPC)): 101 % of control
T/C (endpoint: mean survival time, dose: 200.0 mg/kg/injection, schedule: Q04DX003 (ip), vehicle: Klucel (hydroxypropylcellulose) (HPC)): 95 % of control
T/C (endpoint: mean survival time, dose: 400.0 mg/kg/injection, schedule: Q04DX003 (ip), vehicle: Klucel (hydroxypropylcellulose) (HPC)): 90 % of control

Cc1nccc2c1[nH]c1cc(N)ccc12.[Cl][Sn][Cl]
T/C (endpoint: mean survival time, dose: 5.0 mg/kg/injection, schedule: Q01DX009 (ip), vehicle: saline with Tween-80): 115 % of control
T/C (endpoint: mean survival time, dose: 10.0 mg/kg/injection, schedule: Q01DX009 (ip), vehicle: saline with Tween-80): 103 % of control
T/C (endpoint: mean survival time, dose: 20.0 mg/kg/injection, schedule: Q01DX009 (ip), vehicle: saline with Tween-80): 102 % of control

CCC(Cc1ccccc1)C(=O)O (stereo not given)
T/C [1]: 108 % of control
T/C [2]: 97 % of control
T/C [3]: 97 % of control

CC(CN1c2ccccc2Sc2ccccc21)N(C)CCO (stereo not given)
T/C [17]: 101 % of control
T/C [15]: 101 % of control
T/C [16]: 97 % of control
T/C [10]: 97 % of control
